The text below walks through data of patent publication US8883842B2, “Use of HDAC inhibitors for the treatment of myeloma” (Novartis AG, priority 2005, dated 2014).

Test [1] deals with T1, HDAC6, or tubulin deacetylase (TDAC) (Homo sapiens, UniProt Q9UBN7).
T1 construct: endogenous in cells; host or cells: MM.1S cells
T1 sequence (Q9UBN7 1-1215): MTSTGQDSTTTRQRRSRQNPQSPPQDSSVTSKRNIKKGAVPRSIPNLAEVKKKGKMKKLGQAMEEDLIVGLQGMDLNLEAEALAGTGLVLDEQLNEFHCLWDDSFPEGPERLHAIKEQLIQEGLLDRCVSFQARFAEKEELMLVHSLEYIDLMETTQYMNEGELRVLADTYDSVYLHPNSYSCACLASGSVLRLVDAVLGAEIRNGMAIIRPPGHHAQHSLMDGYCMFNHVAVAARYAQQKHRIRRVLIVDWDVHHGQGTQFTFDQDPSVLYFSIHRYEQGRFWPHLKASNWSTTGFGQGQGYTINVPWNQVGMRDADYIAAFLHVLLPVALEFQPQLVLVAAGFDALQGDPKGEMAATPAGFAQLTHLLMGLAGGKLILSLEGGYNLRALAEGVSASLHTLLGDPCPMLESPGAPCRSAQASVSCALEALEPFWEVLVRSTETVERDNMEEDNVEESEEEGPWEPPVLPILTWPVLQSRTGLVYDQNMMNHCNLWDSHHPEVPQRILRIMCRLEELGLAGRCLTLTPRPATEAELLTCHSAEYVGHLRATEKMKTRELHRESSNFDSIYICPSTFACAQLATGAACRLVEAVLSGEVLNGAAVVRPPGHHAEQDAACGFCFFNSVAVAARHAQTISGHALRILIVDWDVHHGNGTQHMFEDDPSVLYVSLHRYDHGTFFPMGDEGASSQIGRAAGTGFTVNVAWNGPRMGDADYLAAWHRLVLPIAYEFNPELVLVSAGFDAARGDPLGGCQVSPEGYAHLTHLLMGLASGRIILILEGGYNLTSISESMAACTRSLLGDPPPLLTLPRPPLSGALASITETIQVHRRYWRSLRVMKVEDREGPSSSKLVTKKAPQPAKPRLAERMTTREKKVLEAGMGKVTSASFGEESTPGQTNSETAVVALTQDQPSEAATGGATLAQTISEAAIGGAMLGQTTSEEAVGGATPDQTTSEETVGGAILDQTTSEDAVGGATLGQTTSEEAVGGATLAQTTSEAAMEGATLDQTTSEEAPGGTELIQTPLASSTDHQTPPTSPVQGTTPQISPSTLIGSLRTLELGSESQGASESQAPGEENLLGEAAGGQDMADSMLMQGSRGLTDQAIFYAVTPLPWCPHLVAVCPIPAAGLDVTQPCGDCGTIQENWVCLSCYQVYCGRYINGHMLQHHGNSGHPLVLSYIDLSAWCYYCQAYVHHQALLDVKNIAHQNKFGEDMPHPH
As to the kind of experiment: Inhibition of TDAC (HDAC6, tubulin deacetylase) in MM.1S cells. The format is cell-based. The note with it: low nanomolar concentrations. From the text:
(§1) Cell lysates were subjected to SDS-PAGE, transferred to polyvinylidene difluoride (PVDF) membrane, and immunoblotted with anti-acetylated histone (Upstate Biotechnology, Lake Placid, N.Y.), anti-p21 antibody (Santa Cruz Biotech, Santa Cruz, Calif.), anti-PARP; anti-caspase-8, anti-caspase-9 and anti-caspase 3 (Cell Signaling, MA); as well as anti-polyubiquitin conjugates, anti-LMP7, anti-β5 (Affiniti, Mamhead, Exeter, Devon, UK). Membranes were stripped and re-probed with anti-tubulin or anti-β-actin (Sigma, St Louis, Mo.) to ensure equivalent protein loading.

For test [2], the system named is MM.1S cells co-cultured with bone marrow stromal cells. As to the kind of experiment: MM.1S proliferation in co-culture with bone marrow stromal cells. The format is cell-based, human. The procedure: Bone marrow specimens were obtained from patients with MM. Mononuclear cells, separated by FicoII-Hipaque density sedimentation, were used to establish long-term BM cultures. When an adherent cell monolayer had developed, cells were harvested in HBSS containing 0.25% trypsin and 0.02% EDTA and were washed and collected by centrifugation. The BMSCs were then plated onto flat-bottom 96-well plates overnight, and then 3×10^4 mM.1S cells were added for 48 hours. 150 μL of supernatant was removed and cells were pulsed with [3H]thymidine (0.5 μCi/well) during the last 8 hours of 48-hour cultures.

Test [3] has as its system MM cell lines resistant to conventional therapies. The experiment in a line: Growth inhibition (MTS assay and tritiated-thymidine uptake) in MM cell lines. The format is cell-based. Particulars: Homo sapiens, 48 h, read-out: median inhibitory concentration, myeloma cell growth. How it is done: (§2) Bortezomib-sensitive (MM.1S) and Bortezomib-resistant (MM.1R) human MM cell lines, as well as RPMI-8226 cells resistant to Doxorubicin (Dox 40), Mitoxantrone (MR20), and Melphalan (LR5), were cultured in RPMI-1640 media (Cellgro, Mediatech, VA) with 10% fetal bovine serum, 2 mmol/L L-glutamine (GIBCO, Grand Island, N.Y.), 100 U/mL penicillin, and […] streptomycin (GIBCO). Drug-resistant cell lines were cultured with either doxorubicin, mitoxantrone, melphalan or bortezomib to confirm their lack of drug sensitivity. MM patient cells were purified (>95% CD138+) by positive selection with anti-CD138 MACS Microbeads (Miltenyi, San Diego, Calif.).
(§3) DNA synthesis was measured by 3H-thymidine (NEN Products, Boston, Mass.) uptake. Cells were pulsed with 3H-thymidine (0.5 μCi/well) during the last 8 hours of 48-hour cultures. All of the experiments were performed in triplicate.
(§4) Cells from 24-, 48- or 72-hour cultures in 200 μL media plus drug were pulsed with 40 μL of 5 mg/mL MTS to each well for the last 4 hours of the cultures. Absorbance was measured at 490 nm using a spectrophotometer (Molecular Devices Corp., Sunnyvale, Calif.).
In general terms: Tetrazolium assays rely on reduction of a dye to a coloured formazan, in cell work by metabolically active cells.

The test system of a further test is MM cells. The experiment in a line: Combination with proteasome inhibitor bortezomib on MM cells. In kind it is cell-based, human. How it is done:
DNA synthesis was measured by 3H-thymidine (NEN Products, Boston, Mass.) uptake. Cells were pulsed with 3H-thymidine (0.5 μCi/well) during the last 8 hours of 48-hour cultures. All of the experiments were performed in triplicate. Statistical significance of differences observed in drug-treated versus control cultures was determined using Student's t test. The minimal level of significance was p<0.05. […] The survival curves for mice were computed using the Kaplan-Meier method. The survival time differences between the control and treated group were compared using a log-rank test. The median survival times were compared using the Fisher-exact test. To compare the rate of tumor growth in the two arms, a linear mixed effect model (random coefficient model) was fitted.

Another test has as its system MM patient cells. As to the kind of experiment: Growth inhibition (MTS assay and tritiated-thymidine uptake) in MM patient cells. The format is cell-based. The note with it: Homo sapiens, 48 hours, read-out: median inhibitory concentration, myeloma cell growth. The procedure:
as §2, §3, §4

The test system of the next test is MM.1S cells. The experiment in a line: Western blot of apoptosis and cell cycle markers in MM.1S cells. In kind it is cell-based, human.
Excerpt: as §1

pIC50: −log10 of the molar value. Some results are limits rather than exact numbers.

As for `Cc1[nH]c2ccccc2c1CCNCc1ccc(/C=C/C(=O)NO)cc1` [Compound (III), N-hydroxy-3-[4-[[[2-(2-methyl-1H-indol-3-yl)-ethyl]-amino]methyl]phenyl]-2E-2-propenamide], the “inhibition of TDAC” value in test [1] is “dose-dependent inhibition”. Moreover, the “MM.1S myeloma cell proliferation” value in test [2] is “inhibited”. Moreover, the pIC50 in test [3] was above 8.00. In addition, the “activity in combination with bortezomib” value in the test with MM cells is recorded as “Synergistic activity”. Moreover, the pIC50 in the test on MM patient cells was above 8.00. Moreover, in the test on MM.1S cells, the c-myc expression entry was “down-regulation” and the p21 expression result is listed as “up-regulation”. In the test on MM.1S cells (20 nM), the “cleavage of caspase 8, caspase 9, caspase 3 and PARP” value is reported as “Significant cleavage”.
